Tests used:
Assay type in all cases: functional
NCI-H522 = assay: Cytotoxicity against human NCI-H522 cells assessed as growth inhibition after 48 hrs by sulforhodamine B assay; settings: NCI-H522, 48 h
NCI/ADR-RES = assay: Cytotoxicity against human NCI/ADR-RES cells assessed as growth inhibition after 48 hrs by sulforhodamine B assay
PC-3 [1] = assay: Cytotoxicity against human PC3 cells assessed as growth inhibition after 48 hrs by sulforhodamine B assay; settings: PC-3, 48 h
Hs-578T = assay: Cytotoxicity against human Hs 578T cells assessed as growth inhibition after 48 hrs by sulforhodamine B assay
UACC-62 [2] = assay: Cytotoxicity against human UACC62 cells assessed as cell growth at 0.01 uM after 48 hrs by sulforhodamine B assay relative to control; settings: UACC-62, 48 h, read-out: Activity
HCT-116 = assay: Cytotoxicity against human HCT116 cells assessed as cell growth at 0.01 uM after 48 hrs by sulforhodamine B assay relative to control; settings: HCT-116, 48 h, read-out: Activity
HCC 2998 [3] = assay: Cytotoxicity against human HCC2998 cells assessed as cell growth at 0.01 uM after 48 hrs by sulforhodamine B assay relative to control; settings: HCC 2998, 48 h, read-out: Activity
BT-549 = assay: Cytotoxicity against human BT549 cells assessed as cell growth at 0.01 uM after 48 hrs by sulforhodamine B assay relative to control; settings: BT-549, 48 h, read-out: Activity
NCI-H460 = assay: Cytotoxicity against human NCI-H460 cells assessed as cell growth at 0.1 uM after 48 hrs by sulforhodamine B assay relative to control; settings: NCI-H460, 48 h, read-out: Activity
SF-539 = assay: Cytotoxicity against human SF539 cells assessed as cell growth at 0.1 uM after 48 hrs by sulforhodamine B assay relative to control; settings: SF-539, 48 h, read-out: Activity
SK-OV-3 = assay: Cytotoxicity against human SKOV3 cells assessed as cell growth at 0.1 uM after 48 hrs by sulforhodamine B assay relative to control; settings: SK-OV-3, 48 h, read-out: Activity
SN12C = assay: Cytotoxicity against human SN12C cells assessed as cell growth at 0.1 uM after 48 hrs by sulforhodamine B assay relative to control; settings: read-out: Activity
MDA-MB-468 [4] = assay: Cytotoxicity against human MDA-MB-468 cells assessed as cell growth at 0.1 uM after 48 hrs by sulforhodamine B assay relative to control; settings: MDA-MB-468, 48 h, read-out: Activity
CCRF-CEM = assay: Cytotoxicity against human CCRF-CEM cells assessed as cell growth at 1 uM after 48 hrs by sulforhodamine B assay relative to control; settings: read-out: Activity
NCI-H23 = assay: Cytotoxicity against human NCI-H23 cells assessed as cell growth at 1 uM after 48 hrs by sulforhodamine B assay relative to control; settings: NCI-H23, 48 h, read-out: Activity
HT-29 [5] = assay: Cytotoxicity against human HT-29 cells assessed as cell growth at 1 uM after 48 hrs by sulforhodamine B assay relative to control; settings: HT-29, 48 h, read-out: Activity
Malme-3M [6] = assay: Cytotoxicity against human MALME-3M cells assessed as cell growth at 1 uM after 48 hrs by sulforhodamine B assay relative to control; settings: read-out: Activity
MDA-MB-435 [7] = assay: Cytotoxicity against human MDA-MB-435 cells assessed as cell growth at 1 uM after 48 hrs by sulforhodamine B assay relative to control; settings: MDA-MB-435, 48 h, read-out: Activity
SK-MEL-28 = assay: Cytotoxicity against human SK-MEL-28 cells assessed as cell growth at 1 uM after 48 hrs by sulforhodamine B assay relative to control; settings: SK-MEL-28, 48 h, read-out: Activity
786-0 = assay: Cytotoxicity against human 786-0 cells assessed as cell growth at 1 uM after 48 hrs by sulforhodamine B assay relative to control; settings: 786-0, 48 h, read-out: Activity
UO-31 = assay: Cytotoxicity against human UO31 cells assessed as cell growth at 1 uM after 48 hrs by sulforhodamine B assay relative to control; settings: UO-31, 48 h, read-out: Activity
K562 [8] = assay: Cytotoxicity against human K562 cells assessed as cell growth at 10 uM after 48 hrs by sulforhodamine B assay relative to control; settings: K562, 48 h, read-out: Activity
KM12 = assay: Cytotoxicity against human KM12 cells assessed as cell growth at 10 uM after 48 hrs by sulforhodamine B assay relative to control; settings: KM12, 48 h, read-out: Activity
SNB-19 = assay: Cytotoxicity against human SNB19 cells assessed as cell growth at 10 uM after 48 hrs by sulforhodamine B assay relative to control; settings: SNB-19, 48 h, read-out: Activity
Malme-3M [9] = assay: Cytotoxicity against human MALME-3M cells assessed as cell growth at 10 uM after 48 hrs by sulforhodamine B assay relative to control; settings: read-out: Activity
MDA-MB-435 [10] = assay: Cytotoxicity against human MDA-MB-435 cells assessed as cell growth at 10 uM after 48 hrs by sulforhodamine B assay relative to control; settings: MDA-MB-435, 48 h, read-out: Activity
OVCAR-3 = assay: Cytotoxicity against human OVCAR3 cells assessed as cell growth at 10 uM after 48 hrs by sulforhodamine B assay relative to control; settings: OVCAR-3, 48 h, read-out: Activity
OVCAR-8 [11] = assay: Cytotoxicity against human OVCAR8 cells assessed as cell growth at 10 uM after 48 hrs by sulforhodamine B assay relative to control; settings: OVCAR-8, 48 h, read-out: Activity
RXF 393 = assay: Cytotoxicity against human RXF393 cells assessed as cell growth at 10 uM after 48 hrs by sulforhodamine B assay relative to control; settings: RXF 393, 48 h, read-out: Activity
PC-3 [12] = assay: Cytotoxicity against human PC3 cells assessed as cell growth at 10 uM after 48 hrs by sulforhodamine B assay relative to control; settings: PC-3, 48 h, read-out: Activity
K562 [13] = assay: Cytotoxicity against human K562 cells assessed as cell growth at 100 uM after 48 hrs by sulforhodamine B assay relative to control; settings: K562, 48 h, read-out: Activity
HCC 2998 [14] = assay: Cytotoxicity against human HCC2998 cells assessed as cell growth at 100 uM after 48 hrs by sulforhodamine B assay relative to control; settings: HCC 2998, 48 h, read-out: Activity
HT-29 [15] = assay: Cytotoxicity against human HT-29 cells assessed as cell growth at 100 uM after 48 hrs by sulforhodamine B assay relative to control; settings: HT-29, 48 h, read-out: Activity
UACC-62 [16] = assay: Cytotoxicity against human UACC62 cells assessed as cell growth at 100 uM after 48 hrs by sulforhodamine B assay relative to control; settings: UACC-62, 48 h, read-out: Activity
OVCAR-8 [17] = assay: Cytotoxicity against human OVCAR8 cells assessed as cell growth at 100 uM after 48 hrs by sulforhodamine B assay relative to control; settings: OVCAR-8, 48 h, read-out: Activity
MDA-MB-468 [18] = assay: Cytotoxicity against human MDA-MB-468 cells assessed as cell growth at 100 uM after 48 hrs by sulforhodamine B assay relative to control; settings: MDA-MB-468, 48 h, read-out: Activity

COc1ccc(C(=O)/C=C/c2cc(-c3cc(OC)c(OC)c(OC)c3)n[nH]2)cc1OC
LC50 (NCI-H522): 0.825 µM
TGI (NCI-H522): 0.39 µM
LC50 (NCI/ADR-RES): > 100 µM
TGI (NCI/ADR-RES): 15.7 µM
LC50 (PC-3 [1]): 5.76 µM
TGI (PC-3 [1]): 2.8 µM
LC50 (Hs-578T): > 100 µM
TGI (Hs-578T): 8.2 µM
growth at 0.01 µM (UACC-62 [2]): 98%
growth at 0.01 µM (HCT-116): 99%
growth at 0.01 µM (HCC 2998 [3]): 93%
growth at 0.01 µM (BT-549): 95%
growth at 0.1 µM (NCI-H460): 101%
growth at 0.1 µM (SF-539): 98%
growth at 0.1 µM (SK-OV-3): 105%
growth at 0.1 µM (SN12C): 94%
growth at 0.1 µM (MDA-MB-468 [4]): 89%
growth at 1 µM (CCRF-CEM): 39%
growth at 1 µM (NCI-H23): 93%
growth at 1 µM (HT-29 [5]): 88%
growth at 1 µM (Malme-3M [6]): 106%
growth at 1 µM (MDA-MB-435 [7]): 70%
growth at 1 µM (SK-MEL-28): 96%
growth at 1 µM (786-0): 74%
growth at 1 µM (UO-31): 67%
growth at 10 µM (K562 [8]): -13%
growth at 10 µM (KM12): -87%
growth at 10 µM (SNB-19): -80%
growth at 10 µM (Malme-3M [9]): -82%
growth at 10 µM (MDA-MB-435 [10]): -92%
growth at 10 µM (OVCAR-3): -91%
growth at 10 µM (OVCAR-8 [11]): -89%
growth at 10 µM (RXF 393): -98%
growth at 10 µM (PC-3 [12]): -88%
growth at 100 µM (K562 [13]): -15%
growth at 100 µM (HCC 2998 [14]): -86%
growth at 100 µM (HT-29 [15]): -81%
growth at 100 µM (UACC-62 [16]): -93%
growth at 100 µM (OVCAR-8 [17]): -96%
growth at 100 µM (MDA-MB-468 [18]): -87%

COc1cc(-c2cc(/C=C/C(=O)c3ccc4c(c3)OCO4)[nH]n2)cc(OC)c1OC
LC50 (NCI-H522): 5.37 µM
TGI (NCI-H522): 2.35 µM
LC50 (NCI/ADR-RES): > 100 µM
TGI (NCI/ADR-RES): > 100 µM
LC50 (PC-3 [1]): > 100 µM
TGI (PC-3 [1]): 13.7 µM
LC50 (Hs-578T): > 100 µM
TGI (Hs-578T): 78.7 µM
growth at 0.01 µM (UACC-62 [2]): 98%
growth at 0.01 µM (HCT-116): 104%
growth at 0.01 µM (HCC 2998 [3]): 104%
growth at 0.01 µM (BT-549): 94%
growth at 0.1 µM (NCI-H460): 105%
growth at 0.1 µM (SF-539): 99%
growth at 0.1 µM (SK-OV-3): 103%
growth at 0.1 µM (SN12C): 96%
growth at 0.1 µM (MDA-MB-468 [4]): 90%
growth at 1 µM (CCRF-CEM): 67%
growth at 1 µM (NCI-H23): 97%
growth at 1 µM (HT-29 [5]): 103%
growth at 1 µM (Malme-3M [6]): 94%
growth at 1 µM (MDA-MB-435 [7]): 90%
growth at 1 µM (SK-MEL-28): 92%
growth at 1 µM (786-0): 96%
growth at 1 µM (UO-31): 81%
growth at 10 µM (K562 [8]): -1%
growth at 10 µM (KM12): -69%
growth at 10 µM (SNB-19): 30%
growth at 10 µM (Malme-3M [9]): 26%
growth at 10 µM (MDA-MB-435 [10]): -15%
growth at 10 µM (OVCAR-3): 4%
growth at 10 µM (OVCAR-8 [11]): 2%
growth at 10 µM (RXF 393): -95%
growth at 10 µM (PC-3 [12]): 6%
growth at 100 µM (K562 [13]): -10%
growth at 100 µM (HCC 2998 [14]): -50%
growth at 100 µM (HT-29 [15]): -73%
growth at 100 µM (UACC-62 [16]): 22%
growth at 100 µM (OVCAR-8 [17]): -33%
growth at 100 µM (MDA-MB-468 [18]): -85%

COc1cc2c(cc1OC)C(=O)/C(=C/c1cc(-c3ccc4c(c3)OCO4)n[nH]1)C2
GI50 (NCI-H522): 0.25 µM
LC50 (NCI-H522): 3.92 µM
TGI (NCI-H522): 0.871 µM
GI50 (NCI/ADR-RES): 2.25 µM
LC50 (NCI/ADR-RES): > 100 µM
TGI (NCI/ADR-RES): 6.87 µM
GI50 (PC-3 [1]): 1.29 µM
LC50 (PC-3 [1]): 6.6 µM
TGI (PC-3 [1]): 2.92 µM
GI50 (Hs-578T): 2.61 µM
LC50 (Hs-578T): > 100 µM
TGI (Hs-578T): 8.08 µM
growth at 0.01 µM (UACC-62 [2]): 100%
growth at 0.01 µM (HCT-116): 105%
growth at 0.01 µM (HCC 2998 [3]): 92%
growth at 0.01 µM (BT-549): 96%
growth at 0.1 µM (NCI-H460): 101%
growth at 0.1 µM (SF-539): 92%
growth at 0.1 µM (SK-OV-3): 105%
growth at 0.1 µM (SN12C): 93%
growth at 0.1 µM (MDA-MB-468 [4]): 83%
growth at 1 µM (CCRF-CEM): 55%
growth at 1 µM (NCI-H23): 92%
growth at 1 µM (HT-29 [5]): 74%
growth at 1 µM (Malme-3M [6]): 88%
growth at 1 µM (MDA-MB-435 [7]): 93%
growth at 1 µM (SK-MEL-28): 105%
growth at 1 µM (786-0): 88%
growth at 1 µM (UO-31): 68%
growth at 10 µM (K562 [8]): 2%
growth at 10 µM (KM12): -87%
growth at 10 µM (SNB-19): -95%
growth at 10 µM (Malme-3M [9]): -70%
growth at 10 µM (MDA-MB-435 [10]): -88%
growth at 10 µM (OVCAR-3): -92%
growth at 10 µM (OVCAR-8 [11]): -89%
growth at 10 µM (RXF 393): -78%
growth at 10 µM (PC-3 [12]): -75%
growth at 100 µM (K562 [13]): 4%
growth at 100 µM (HCC 2998 [14]): -94%
growth at 100 µM (HT-29 [15]): -70%
growth at 100 µM (UACC-62 [16]): -88%
growth at 100 µM (OVCAR-8 [17]): -94%
growth at 100 µM (MDA-MB-468 [18]): -86%

Source: ChEMBL document CHEMBL4138123, “Design, synthesis and biological evaluation of novel pyrazolochalcones as potential modulators of PI3K/Akt/mTOR pathway and inducers of apoptosis in breast cancer cells” (Eur J Med Chem, 2017)
